# Source: patent US6060462A, “Electrophilic peptide analogs as inhibitors of trypsin-like enzymes” (DuPont Pharmaceuticals Company, priority 1997, dated 2000)
# pKi: −log10 of the molar value. Counter-ions that a name gives are not always drawn. Like-named read-outs stand apart in the source and are kept apart here.
# Columns and labels:
# Type in all cases: biochemical
# [1] = target: human thrombin (Homo sapiens, UniProt P00734); assay: Inhibition of thrombin hydrolysis of chromogenic substrate S2238 (Ki); parameters: 0.2-0.5 nM human thrombin or human factor Xa; purchased Enzyme Research Laboratories, South Bend, Ind; settings: purified human thrombin, 0.10 M sodium phosphate buffer, pH 7.5, read-out: Ki values for inhibition of Serine Proteases: Trombin
# Experimental: (§1) The effectiveness of compounds of the present invention as inhibitors of blood coagulation proteases was determined using purified human proteases and synthetic substrates following procedures similar to those described in Kettner et al. (1990).
# (§2) For these assays, the rate of enzymatic (thrombin, Factor Xa, and Factor VIIa) hydrolysis of chromogenic substrates (S2238 (H-D-Phe-Pip-Arg-pNA), S2222, and S2288, respectively; Kabi Pharmacia, Franklin, Ohio) was measured both in the absence and presence of compounds of the present invention. […] A decrease in the rate of absorbance change at 405 nm in the presence of inhibitor is indicative of enzyme inhibition. The results of this assay are expressed as inhibitory constant, Ki.
# (§3) Thrombin and Xa determinations were made in 0.10 M sodium phosphate buffer, pH 7.5, containing 0.20 M NaCl, and 0.5% PEG 8000. VIIa determinations were made in 0.05 M tris buffer, pH 7.6, containing 0.10 M NaCl, 4 mM CaCl2, and 0.1% bovine serum albumin.
# (§4) Reactions were allowed to go for 30 minutes and the velocities (rate of absorbance change vs time) were measured in the time frame of 25-30 minutes. The following relationship was used to calculate Ki values. [formula] where: vo is the velocity of the control in the absence of inhibitor;
# (§5) vs is the velocity in the presence of inhibitor;
# (§6) I is the concentration of inhibitor;
# (§7) Ki is the dissociation constant of the enzyme: inhibitor complex;
# (§8) S is the concentration of substrate;
# (§9) Km is the Michaelis constant.
# [2] = target: T1, human factor VIIa (Homo sapiens, UniProt P08709); assay: Inhibition of Factor VIIa hydrolysis of chromogenic substrate S2288 (Ki); settings: purified human factor VIIa, 0.05 M tris buffer; for pKi: pH 7.6, read-out: Ki values for inhibition of Serine Proteases: Factor VIIa; for Ki values for inhibition of Serine Proteases: Factor VIIa: pH 7.6
# T1 construct: 50 nM human factor VIIa (BiosPacific, Emeryville, Calif.); purchased BiosPacific, Emeryville, Calif
# T1 sequence (P08709 213-466 limits assumed): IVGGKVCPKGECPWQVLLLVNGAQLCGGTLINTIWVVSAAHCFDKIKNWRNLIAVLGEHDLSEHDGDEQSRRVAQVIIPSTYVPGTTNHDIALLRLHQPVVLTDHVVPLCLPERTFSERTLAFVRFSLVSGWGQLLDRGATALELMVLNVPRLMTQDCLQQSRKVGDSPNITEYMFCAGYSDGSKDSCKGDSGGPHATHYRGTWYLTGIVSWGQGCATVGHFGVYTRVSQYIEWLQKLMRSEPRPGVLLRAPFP
# T1 sequence (P08709 61-212 partner limits assumed): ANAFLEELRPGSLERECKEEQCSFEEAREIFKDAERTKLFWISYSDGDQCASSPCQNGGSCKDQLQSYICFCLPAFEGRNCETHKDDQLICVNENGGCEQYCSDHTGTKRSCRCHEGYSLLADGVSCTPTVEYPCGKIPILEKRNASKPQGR
# Experimental: as §1, §2, §3, §4, §5, §6, §7, §8, §9
# [3] = target: T2, human factor Xa (Homo sapiens, UniProt P00742); assay: Inhibition of Factor Xa hydrolysis of chromogenic substrate S2222 (Ki); settings: purified human factor Xa, 0.10 M sodium phosphate buffer; for Ki values for inhibition of Serine Proteases: Factor Xa: pH 7.5
# T2 construct: 0.2-0.5 nM human thrombin or human factor Xa; purchased Enzyme Research Laboratories, South Bend, Ind
# Experimental: as §1, §2, §3, §4, §5, §6, §7, §8, §9
# [4] = pH 7.5, read-out: Ki values for inhibition of Serine Proteases: Factor Xa
# T2 sequence (P00742 235-488 limits assumed): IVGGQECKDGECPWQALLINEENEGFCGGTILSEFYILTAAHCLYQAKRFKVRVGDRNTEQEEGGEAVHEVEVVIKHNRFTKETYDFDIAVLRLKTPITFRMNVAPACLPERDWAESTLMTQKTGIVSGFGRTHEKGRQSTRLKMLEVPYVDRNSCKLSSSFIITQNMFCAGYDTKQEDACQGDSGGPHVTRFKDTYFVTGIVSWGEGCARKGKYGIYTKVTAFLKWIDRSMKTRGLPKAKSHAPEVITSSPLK
# T2 sequence (P00742 41-179 partner limits assumed): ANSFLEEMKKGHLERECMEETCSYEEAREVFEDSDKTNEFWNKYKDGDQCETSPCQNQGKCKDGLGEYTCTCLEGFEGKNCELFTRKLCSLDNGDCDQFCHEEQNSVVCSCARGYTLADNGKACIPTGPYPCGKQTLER
pKi [1],pKi [2],"pKi [3, 4]","pKi ([3]; pH 7.5, HCl, read-out: Ki values for inhibition of Serine Proteases: Factor Xa)",Ki values for inhibition of Serine Proteases: Factor VIIa [2],Ki values for inhibition of Serine Proteases: Factor Xa [3],SMILES
> 6.30,> 6.30,> 6.30,–,–,–,"CC(C)(CN(CC(=O)NC(CCCNC(=N)N)B(O)O)C(=O)CCc1ccccc1)c1ccccc1 (stereo not drawn) [Example 55.1.1, Hydrocinnamoyl-[N-(2,2-(Dimethyl)-Phenethyl)-Gly]-boroArg--OH HCl]"
> 6.30,> 6.30,> 6.30,–,–,–,"CC(C)(CN(CC(=O)NC(CCCNC(=N)N)B1OC2CC3CC(C3(C)C)C2(C)O1)C(=O)CCc1ccccc1)c1ccccc1 (stereo not drawn) [Example 56.1.1, Hydrocinnamoyl-[N-(2,2-(Dimethyl)-Phenethyl)-Gly]-boroArg-C10H16 HCl]"
> 6.30,> 6.30,> 6.30,–,–,–,"CC1(C)C2CC3OB(C(CCCNC(=N)N)NC(=O)CN(CCc4ccccc4C4CC4)C(=O)CCc4ccccc4)OC3(C)C1C2 (stereo not drawn) [Example 56.1.2, Hydrocinnamoyl-[N-(2-(Cyclopropyl)-Phenethyl)--Gly]-boroArg-C10H16 HCl]"
> 6.30,> 6.30,> 6.30,–,–,–,"Cc1cc(C)cc(C(C)(C)CN(CC(=O)NC(CCCN=C(N)N)B2OC3CC4CC(C4(C)C)C3(C)O2)C(=O)CCc2ccccc2)c1 (stereo not drawn) [Example 56.3.3, Hydrocinnamoyl-{N-[2,2-(Dimethyl)-2-(3,5-dimethylphenyl)-ethyl]-Gly}-boroArg-C10H16 HCl]"
> 6.30,> 6.30,–,> 4.30,–,–,"CC(C)(CN(CC(=O)NC(CCCCN)B(O)O)C(=O)CCc1ccccc1)c1ccccc1 (stereo not drawn) [Example 59.1.1, Hydrocinnamoyl-[N-(2,2-(Dimethyl)-Phenethyl)-Gly]-boroLys--OH HCl]"
> 6.30,> 4.30,> 4.30,–,–,–,"CC(C)(CN(CC(=O)NC(CCCN)B1OC2CC3CC(C3(C)C)C2(C)O1)C(=O)CCc1ccccc1)c1ccccc1 (stereo not drawn) [Example 60.3.3, Hydrocinnamoyl-[N-(2,2-(Dimethyl)-Phenethyl)-Gly]-boroOrn-C10H16 HCl]"
> 6.30,> 4.30,> 4.30,–,–,–,"Cc1cc(C)cc(CCN(CC(=O)NC(CCCN)B2OC3CC4CC(C4(C)C)C3(C)O2)C(=O)CCc2ccccc2)c1 (stereo not drawn) [Example 60.4.1, Hydrocinnamoyl-{N-[2-(3,5-dimethylphenyl)-ethyl]-Gly}-boroOrn-C10H16 HCl]"
> 4.30,–,–,–,Inactive,Inactive,"CN(CC(=O)NC(CO)CCCCN)C(=O)CCc1ccccc1 (stereo not drawn) [Example 61.3.1, Hydrocinnamoyl-Sar-NHCH(CH20H)(CH2)4--NH2]"
> 4.30,–,–,–,Inactive,Inactive,"CN(CC(=O)NC(CO)CCCCNC(=O)OCc1ccccc1)C(=O)CCc1ccccc1 (stereo not drawn) [Example 61.3.2, Hydrocinnamoyl-Sar-NHCH(CH20H)(CH2)4--NH(Z)]"
> 4.30,> 4.30,> 4.30,–,–,–,CN(CC(=O)NC(CCCBr)B1OC2CC3CC(C3(C)C)C2(C)O1)C(=O)c1ccccc1Sc1ccccc1C#N (stereo not drawn) [Example 62.1.1]
> 4.30,> 4.30,> 4.30,–,–,–,CN(CC(=O)NC(CCCCBr)B1OC2CC3CC(C3(C)C)C2(C)O1)C(=O)c1ccccc1Sc1ccccc1C#N (stereo not drawn) [Example 62.1.2]
> 6.30,> 6.30,> 6.30,–,–,–,"CN(CC(=O)NC(CCCSC(=N)N)B1OC2CC3CC(C3(C)C)C2(C)O1)C(=O)c1ccccc1Sc1ccccc1C#N (stereo not drawn) [Example 62.1.3, (2-(2-Cyano)-Thiophenyl)-Benzoyl-Sar-boroIrg-C10H16 HBr]"
> 4.30,> 4.30,> 4.30,–,–,–,CN(CC(=O)NC(CCCN=[N+]=[N-])B1OC2CC3CC(C3(C)C)C2(C)O1)C(=O)c1ccccc1Sc1ccccc1C#N (stereo not drawn) [Example 62.2.1]
> 6.30,> 4.30,> 6.30,–,–,–,"CN(CC(=O)NC(CCCCSC(=N)N)B1OC2CC3CC(C3(C)C)C2(C)O1)C(=O)c1ccccc1Sc1ccccc1C#N (stereo not drawn) [Example 62.2.2, (2-(2-Cyano)-Thiophenyl)-Benzoyl-Sar-borohomoIrg-C10H16 HBr]"
> 4.30,> 4.30,> 4.30,–,–,–,CN(CC(=O)NC(CCCCN=[N+]=[N-])B1OC2CC3CC(C3(C)C)C2(C)O1)C(=O)c1ccccc1Sc1ccccc1C#N (stereo not drawn) [Example 62.2.3]
> 4.30,> 4.30,> 4.30,–,–,–,"CN(CC(=O)NC(CCCN)B1OC2CC3CC(C3(C)C)C2(C)O1)C(=O)c1ccccc1Sc1ccccc1C#N (stereo not drawn) [Example 62.3.1, (2-(2-Cyano)-Thiophenyl)-Benzoyl-Sar-boroOrn-C10H16 HCl]"
> 6.30,> 4.30,> 6.30,–,–,–,"CN(CC(=O)NC(CCCCNC(=N)N)B1OC2CC3CC(C3(C)C)C2(C)O1)C(=O)c1ccccc1Sc1ccccc1C#N (stereo not drawn) [Example 62.3.2, (2-(2-Cyano)-Thiophenyl)-Benzoyl-Sar-borohomoArg-C10H16 HCl]"
> 6.30,> 6.30,> 6.30,–,–,–,"CN(CC(=O)NC(CCCNC(=N)N)B1OC2CC3CC(C3(C)C)C2(C)O1)C(=O)c1ccccc1Sc1ccccc1C#N (stereo not drawn) [Example 62.3.3, 2-(2-cyanothiophenyl)-benzoyl-Sar-BoroArg C10 H16.HCl]"
> 6.30,> 4.30,> 6.30,–,–,–,"CN(CC(=O)NC(CCCSC(=N)N)B1OC2CC3CC(C3(C)C)C2(C)O1)C(=O)c1ccccc1Sc1ccccc1 (stereo not drawn) [Example 63.1.3, 2-(Thiophenyl)-Benzoyl-Sar-boroIrg-C10H16 HBr]"
> 6.30,–,> 4.30,–,inactive,–,"CN(CC(=O)NC(CCCN)B1OC2CC3CC(C3(C)C)C2(C)O1)C(=O)c1ccccc1Sc1ccccc1.Cl (stereo not drawn) [Example 63.3.1, 2-(Thiophenyl)-Benzoyl-Sar-boroOrn-C10H16 HCl]"
> 6.30,> 6.30,> 4.30,–,–,–,"CC(=O)N(CC(=O)NC(CCCCN)B1OC2CC3CC(C3(C)C)C2(C)O1)Cc1ccccc1Cc1ccccc1 (stereo not drawn) [Example 64.1.2, Acetyl-Gly[N-(2-(Benzyl)-Benzyl)]-boroLys-C10H16 HCl]"
> 6.30,> 6.30,> 6.30,–,–,–,"CN(CC(=O)NC(CCCCN)B1OC2CC3CC(C3(C)C)C2(C)O1)C(=O)c1ccccc1Cc1cccc(Cl)c1 (stereo not drawn) [Example 64.2.3, 2-(3-chlorobenzyl)-benzoyl-Sar-Borolys C10 H16.HCl]"
> 6.30,> 4.30,> 4.30,–,–,–,"CC(C)(CC(=O)O)CC(=O)N(CCc1ccccc1)CC(=O)NC(CCCCN)B1OC2CC3CC(C3(C)C)C2(C)O1 (stereo not drawn) [Example 67.1.2, Glutaryl(3,3-Dimethyl)-[N-(Phenethyl)-Gly]-boroLys-C10H16]"
> 6.30,> 4.30,> 6.30,–,–,–,"COC(=O)CC(C)(C)CC(=O)N(CCc1ccccc1)CC(=O)NC(CCCCN)B1OC2CC3CC(C3(C)C)C2(C)O1 (stereo not drawn) [Example 67.1.3, Methyl Glutaryl(3,3-Dimethyl)-[N-(Phenethyl)-Gly]-boroLys-C10H16 HCl]"
> 6.30,> 4.30,> 4.30,–,–,–,"CC(C)(C)OC(=O)NC(CCC(=O)O)C(=O)N(CCc1ccccc1)CC(=O)NC(CCCCN)B(O)O (stereo not drawn) [Example 68.2.1, Boc-Glu-[N-(Phenethyl)-Gly]-boroLys--OH]"
> 6.30,> 4.30,> 4.30,–,–,–,"NCCCCC(NC(=O)CN(CCc1ccccc1)C(=O)CCC(=O)O)B(O)O (stereo not drawn) [Example 68.3.1, Succinyl-[N-(Phenethyl)-Gly]-boroLys--OH]"
> 6.30,> 4.30,> 4.30,–,–,–,"COC(=O)CCCC(=O)N(CCc1ccccc1)CC(=O)NC(CCCCN)B1OC2CC3CC(C3(C)C)C2(C)O1 (stereo not drawn) [Example 69.4.1, Methyl Glutaryl-[N-(Phenethyl)-Gly]-boroLys-C10H16 HCl]"
